Results as given in US20110152379A1, “COMPOSITION FOR CONTROL OF AGING AND/OR EXTENSION OF LIFE, CONTAINING DAPSONE AS ACTIVE INGREDIENT” (priority 2008, published 2011).

Key:
autophagy = test: Autophagy genes RT-PCR and GFP::lgg-1 immune blot in C. elegans; format: in vivo; details: after treating with DDS
Protocol: All the results are summarized from three independent experiments.
Total RNA was isolated by using TRI reagent available from MRC Company and first cDNA strain was synthesized by using Oligo-dT and Superscript II Reverse Transcriptase (available from Invitrogen Company). The gene amplification (PCR) was performed by using PCR Master Mix (Genenmed) and as the base sequence of the primer, ceDuox1; 5′-[…]-3′ (Forward Primer) and 5′-[…]-3′ (Reverse Primer), actin 5′-[…]-3′ (Forward Primer) and 5′-[…]-3′ (Reverse Primer) were used.
In addition, the gene related to the autophagy used the primer as follows: […]

NOX4 = NOX4 mRNA level by RT-PCR in PQ-treated human diploid fibroblast; format: cell-based; details: 1 mM PQ for 5 minutes, FIG. 26
Protocol: The amount of NOX4 (HDF specific) mRNA, which is a source for generating a cytosolic superoxide anion, increased by PQ was measured. For FIG. 26B, it was quantitived as % rate as compared with a control (non-treated human diploid fibroblast).
RNA of the human diploid fibroblast was isolated by using Trizol Reagent (MRC Cincinnati, USA), and NOX4 and GAPDH were measured through RT-PCR by using Biometra T Gradient PCR (Biometra, Goettingen, Germany) machine. A specific NOX primer; 5′-[…]-3′ (Forward Primer) and 5′-[…]-3′ (Reverse Primer); Primer for GAPDH 5′-[…]-3′ (Forward Primer) and 5′-[…]-3′ (Reverse Primer) were used as primers. DNA that was manipulated by PCR was isolated through 1.2% agarose gel electrophoresis, stained with EtBr to be visualized and then taken a photography that can be shown through UV.

C. elegans [1] = test: Chemiluminescent of lipofuscin in small intestine of worm; format: in vivo; details: fed on DDS during the whole life and after the adolescence; FIG. 5
Protocol: The chemiluminescent of C. elegans was taken a photograph by exposing for 800 msec through 525 nm Band-Pass Filter. The size of each photograph was only adjusted by using Adobe Photoshop CS2. For measuring the amount of Chemiluminescent in a small intestine, the brightness of pixels in a certain region was measured by Image J 1.35. At least 30 of C. elegans were measured every day and then the mean and standard error were calculated.

[2] = tested on: cytosolic superoxide anion; test: Superoxide anion in cell (cytoplasm), DHE; format: cell-based; details: human diploid fibroblast; 1 mM PQ 30 minutes; FIG. 24A
Protocol: The cell was treated with 1 mM of PQ for 30 minutes, and then was cultured at 37° C. for 15 minutes after adding oxidant-sensitive fluorescent dyes (A) DHE (5 uM, cytosol specific) and (B) MitoSOX (5 uM, mitochondria specific), respectively. For identifying the change of fluorescence, the excitation and emission wavelength of DHE were measured at 515 and 590 nm and MitoSOX was measured at 520 and 580 nm by using a multiwell plate reader. The results were indicated by calculating the results of three experiments as a control rate (%). The statistical significant was expressed as *, # p<0.005; ** p<0.05.
The cell was twice washed with DPBS and Ethidium-DNA that fluoresces was immediately measured at excitation wavelength 515 nm and emission wavelength 590 nm by using Cary Eclipse fluorescence spectrophotometer (Varian, Calif., USA) machine.

C. elegans [3] = test: Oxygen uptake rate of C. elegans (Clark-type oxygen electrode); format: in vivo; details: C. elegans treated with DDS; FIG. 10
Protocol: The oxygen uptake rate was measured by using the method disclosed in the theses (50, 51) using Clark-type oxygen electrode (782 Oxygen Meter, Strathkelvin Instruments, Glasgow, UK). […] Approximately 1500 C. elegans in 200 uL of S-basal buffer were added to Mitocell chamber with Clark-type oxygen electrode to measure the oxygen uptake rate for several minuets. A sample was carefully taken from the chamber and then twice homogenized at 5000 rpm for 20 seconds by using Precellys24 homogenizer with glass bead. The sample was centrifuged at 15000 g for 20 minutes and the protein in the supernatant was quantified by using BCA protein quantification kit.

mitochondria complex V = test: Western blot of mitochondria complex V amount in C. elegans; format: in vivo; details: C. elegans treated with DDS; FIG. 8
Protocol: C. elegans was isolated and collected by using dense sucrose (Centrifugation) and was washed with S buffer solution to remove a contaminant. In order to isolate mitochondria, C. elegans was twice homogenized in MSM buffer solution (220 mM mannitol, 10 mM sucrose, 5 mM MOPS, pH 7.4, with KOH) containing 0.2% of BSA at 5000 rpm for 20 seconds by using Precellys24 Homogenizer (Medinova) and Glass bead. The residue and non-homogenized C. elegans were removed fro the homogenized C. elegans through a centrifuge (380 g, 5 min) by using MSM buffer solution. The precipitate of homogenous substance that was centrifuged at 4500 g for 5 minutes, i.e., mitochondria were prepared. The rest was prepared as a part of cytoplasm. […] The quantitation of protein was performed by using BCA protein detection kit (Pierce).
The lysates of C. elegans grown under appropriate condition (containing PABA alone or PABA and dapsone) were prepared. […] After transferring to a nitrocellulose, they were analyzed by using Western Blot using MS601 (subunit α of F1 of ATP synthase, Oxphos Complexes detection kit, Mitoscience, 1:1,000) and α-Tubulin (Sigma; 1:2,000) antibody. The result was detected by using ECL (Pierce) and a horseradish peroxidase-conjugated secondary antibody.

human diploid fibroblast = test: Growth suppression of human diploid fibroblast by DDS (data not shown); format: cell-based; details: read-out: DDS concentration that can suppress 50% growth of human diploid fibroblast (1050)
ATP = test: Measurement of ATP amount in C. elegans; format: in vivo; details: C. elegans treated with DDS; FIG. 9
Protocol: The amount of ATP was measured by slightly modifying the method as mentioned above. In order to, analyze the total amount of ATP, C. elegans was cultured by feeding only on PABA or by feeding on PABA and dapsone, and then was washed with S Basal buffer solution (0.1 M NaCl/0.05 M potassium phosphate buffer, pH 6.0) to remove a contaminant and prepare a sample for measuring. The sample was ultimately adjusted to be 100 ul and then froze at −80° C. C. elegans that was frozen was immediately heated for 15 minutes to erupt ATP and then maintained at a cold condition. Since then, the residue of C. elegans was removed by using a centrifuge (at 15,000 g for 5 minutes). The amount of ATP was measured by using the reagent of bioluminescence assay kit CLS II (Roche Molecular Biochemicals) and Luminometer (available from PerkinElmer company). The amount of ATP was standardized with the amount of protein.

Nc1ccc(S(=O)(=O)c2ccc(N)cc2)cc1 [DDS, 4,4′-diaminodiphenylsulfone]
genes relevant to the autophagy, transcription level (autophagy; RT-PCR, FIG. 21A): not changed
LGG-1 marker protein of the autophagy (autophagy; immune blot, FIG. 21B): not increased
NOX4 expression increased by PQ (NOX4): decreases
generation of lipofuscin (C. elegans [1]): delayed for several days
superoxide anion of cytoplasm produced by PQ (DHE assay) [2]: reduced depending upon the concentration of DDS
oxygen uptake rate (C. elegans [3]): meaningfully decreased
amount of complex V (mitochondria complex V): significantly decreased
IC50 (human diploid fibroblast): ~745 µM
ATP amount (ATP): decreased
